Assay results reported in US7087762B2, “Long-lasting antimicrobial reaction product of allantoin and formaldehyde containing a low level of free formaldehyde” (ISP Investments Inc., priority 2002, dated 2006).

Key:
A. Niger ATCC 9642 = experiment: Activity against yeast and mold, 0.3% test solutions; assay type: cell-based, Aspergillus niger; set-up: key: + Growth; − No Growth
Excerpt: Activity against yeast and mold:

CAN (Candida albicans) = experiment: Preservative challenge test, screening emulsion; assay type: cell-based
Experimental: (§1) A typical cosmetic emulsion was prepared for microbiological challenge testing and predetermined admixtures of a methylol compound and IPBC were added at various use levels. The emulsion thus prepared had the following composition:
(§2) To prepare the emulsion, Phases A and B were heated separately to 75°–80° C. Phase A then was added to Phase B with mixing. The mixture then was cooled to 55°–60° C. At this point the desired amount of the preservative admixture was added and the product was cooled to 50° C. while stirring. The citric acid solution then was added to adjust the pH and the mixture was stirred until a temperature of 30° C. was reached.
(§3) The challenge tests were carried out using the following microorganisms: SA, ECOLI, PSA, PC, AN and CAN, in this manner. 50 g aliquots of the test emulsion containing various amounts of the preservative admixture were inoculated with approximately 10^7–10^8 of the challenge organisms. The test samples then were stirred to disperse the challenge inoculum. The samples were incubated and assayed at 48 hours, 7, 14, 21 and 28 days. The assays were performed on 1 g of the test sample by serially diluting 10^1 to 10^6 of the original concentration. The plating medium for bacteria was Letheen agar and for fungi it was low pH Mycophil agar with Tween 20. Each plated sample was incubated for 48 hours at 37° C. for bacteria, 5 days at 25° C. for mold, and 3 days at 25° C. for fungi. After incubation, readings of the number of colonies per milliliter (cfu/ml) were made. At 21 days the test product was reinoculated with half of the original inoculum.

[1] = tested on: SA (Staphylococcus aureus); experiment: Preservative challenge test, screening emulsion; assay type: cell-based
Experimental: as §1, §2, §3

[2] = tested on: EC (ECOLI, Escherichia coli); experiment: Preservative challenge test, screening emulsion; assay type: cell-based
Experimental: as §1, §2, §3

## O=C1C(N(CO)C(=O)NCO)N(CO)C(=O)N1CO (stereo not shown) [Germall II]
A. Niger ATCC 9642
  Growth, A. Niger ATCC 9642(for 3 Days): −
CAN (Candida albicans); 250 ppm
  cfu/ml, 48 hrs: 290,000 cfu/ml
  cfu/ml, 7 days: 170,000 cfu/ml
  cfu/ml, 14 days: 71,000 cfu/ml
  cfu/ml, 21 days: 46,000 cfu/ml
  cfu/ml, 28 days: 680,000 cfu/ml
CAN (Candida albicans); 500 ppm
  cfu/ml, 48 hrs: 170,000 cfu/ml
  cfu/ml, 7 days: 100,000 cfu/ml
  cfu/ml, 14 days: 90,000 cfu/ml
  cfu/ml, 21 days: 320,000 cfu/ml
  cfu/ml, 28 days: 930,000 cfu/ml
CAN (Candida albicans); 1000 ppm
  cfu/ml, 48 hrs: 160,000 cfu/ml
  cfu/ml, 7 days: 78,000 cfu/ml
  cfu/ml, 14 days: 63,000 cfu/ml
  cfu/ml, 21 days: 260,000 cfu/ml
  cfu/ml, 28 days: 210,000 cfu/ml
CAN (Candida albicans); 2000 ppm
  cfu/ml, 48 hrs: 150 cfu/ml
  cfu/ml, 7 days: 9,600 cfu/ml
  cfu/ml, 14 days: 48,900 cfu/ml
  cfu/ml, 21 days: 490,000 cfu/ml
  cfu/ml, 28 days: 210,000 cfu/ml
[1]; 250 ppm
  cfu/ml, 48 hrs: 55,000 cfu/ml
  cfu/ml, 7 days: <10 cfu/ml
  cfu/ml, 14 days: <10 cfu/ml
  cfu/ml, 21 days: <10 cfu/ml
  cfu/ml, 28 days: <10 cfu/ml
[1]; 500 ppm
  cfu/ml, 48 hrs: 17,000 cfu/ml
  cfu/ml, 7 days: <10 cfu/ml
  cfu/ml, 14 days: <10 cfu/ml
  cfu/ml, 21 days: <10 cfu/ml
  cfu/ml, 28 days: <10 cfu/ml
[1]; 1000 ppm
  cfu/ml, 48 hrs: <10 cfu/ml
  cfu/ml, 7 days: <10 cfu/ml
  cfu/ml, 14 days: <10 cfu/ml
  cfu/ml, 21 days: <10 cfu/ml
  cfu/ml, 28 days: <10 cfu/ml
[1]; 2000 ppm
  cfu/ml, 48 hrs: <10 cfu/ml
  cfu/ml, 7 days: <10 cfu/ml
  cfu/ml, 14 days: <10 cfu/ml
  cfu/ml, 21 days: <10 cfu/ml
  cfu/ml, 28 days: <10 cfu/ml
[2]; 250 ppm
  cfu/ml, 48 hrs: 5500 cfu/ml
  cfu/ml, 7 days: <10 cfu/ml
  cfu/ml, 14 days: <10 cfu/ml
  cfu/ml, 21 days: <10 cfu/ml
  cfu/ml, 28 days: <10 cfu/ml
[2]; 500 ppm
  cfu/ml, 48 hrs: 610 cfu/ml
  cfu/ml, 7 days: <10 cfu/ml
  cfu/ml, 14 days: <10 cfu/ml
  cfu/ml, 21 days: <10 cfu/ml
  cfu/ml, 28 days: <10 cfu/ml
[2]; 1000 ppm
  cfu/ml, 48 hrs: <10 cfu/ml
  cfu/ml, 7 days: <10 cfu/ml
  cfu/ml, 14 days: <10 cfu/ml
  cfu/ml, 21 days: <10 cfu/ml
  cfu/ml, 28 days: <10 cfu/ml
[2]; 2000 ppm
  cfu/ml, 48 hrs: <10 cfu/ml
  cfu/ml, 7 days: <10 cfu/ml
  cfu/ml, 14 days: <10 cfu/ml
  cfu/ml, 21 days: <10 cfu/ml
  cfu/ml, 28 days: <10 cfu/ml
